Laboratory results from ChEMBL document CHEMBL1155044, “Elucidation of different binding modes of purine nucleosides to human deoxycytidine kinase” (J Med Chem, 2008).

Legend:
[1] = test system: Nc1nc(O)c2ncn([C@H]3C[C@H](O)[C@@H](CO)O3)c2n1; details: Homo sapiens
[2] = test system: Nc1nc(O)c2ncn([C@H]3C[C@H](O)[C@@H](CO)O3)c2n1; details: Homo sapiens; remark: listed apart in the source
Homo sapiens [3] = organism: Homo sapiens
Homo sapiens [4] = organism: Homo sapiens; remark: listed apart in the source

Deoxycytidine kinase (Homo sapiens), P27707, sequence (P27707 whole entry): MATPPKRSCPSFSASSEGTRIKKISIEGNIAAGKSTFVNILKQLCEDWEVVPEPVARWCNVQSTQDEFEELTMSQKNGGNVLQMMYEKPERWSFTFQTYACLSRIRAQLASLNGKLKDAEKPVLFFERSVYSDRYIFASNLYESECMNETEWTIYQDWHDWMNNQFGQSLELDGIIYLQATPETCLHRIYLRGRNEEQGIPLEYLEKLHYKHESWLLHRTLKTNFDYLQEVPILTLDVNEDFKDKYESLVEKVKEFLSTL

Compound	Km [1]	Km [2]	kcat [2]	Km (Homo sapiens [3])	kcat (Homo sapiens [3])	Km (Homo sapiens [4])	kcat (Homo sapiens [4])
Deoxycytidine kinase (Homo sapiens), P27707	181 µM	41 µM	0.53 s⁻¹	–	–	–	–
Nc1nc(O)c2ncn([C@H]3C[C@H](O)[C@@H](CO)O3)c2n1	–	–	–	700 µM	3.6 s⁻¹	10.4 µM	0.43 s⁻¹
